Assay results reported in paper PMC4430089 (Journal of peptide science : an official publication of the …, 2014).

What was measured:
[1] = tested on: Jurkat E6 human leukemia cells; test: Cellular uptake by flow cytometry; type: cell-based; conditions: 15μM peptide, 10 min
[2] = tested on: 3T3 Swiss mice fibroblasts; test: Cell viability, Trypan Blue assay; conditions: 15 μM peptide in PBS, 30 min exposure, three repeats on two plates
[3] = Circular dichroism: conformation and thermal unfolding; type: physicochemical; conditions: for FF @ 37°C (folded fraction): calculated from CD molar ellipticity at 224 nm: FF=CD37-CD80/CDfolded-CD80
[4] = tested on: 3T3 Swiss mice fibroblasts; test: Cellular uptake by confocal microscopy; type: cell-based; conditions: 15 μM peptide in PBS, 30 min; for Preferential accumulation site within the cell: confocal microscopy without DAPI; for Cellular uptake (FITC fluorescence from cells): confocal microscopy, 37°C

Row | FF @ 37°C (folded fraction) [3] | Tm lower than Tm of V1 ([3]; difference of CD Tm values) [°C] | Substance | Number of cells that uptake the peptide [1] [%] | Cytotoxicity compared to control (cell viability) [2] | Preferential accumulation site within the cell [4] | Cellular uptake (FITC fluorescence from cells) [4] | Fluorescence intensity of cells lower than cells incubated with V2 [1]
1 | 0.82 | 3.2 | FITC-AβGG-POGPOGPOGPOGPOGPOGPOGPOG-RRRRRR [Peptide V2] | 72.8 | no significant (p>0.05) toxicity | stronger preference to accumulate within the nuclear bodies | effectively penetrate the cellular membrane | 
2 | 0.90 |  | FITC-AβGG-POGPOGPOGPOGPOGPOGPOGPOG-RRGRRG [Peptide V1] | 71.2 | no significant (p>0.05) toxicity | accumulates to larger extend in cytoplasm than V2, with only small amount reaching the nucleus | effectively penetrate the cellular membrane | about 20%
